Earlier results as cited in patent US20240416337A1, “Quantitation of chemical, biological and biochemical analytes on a flow assay using a smartphone” (Real-Time Analyzers, Inc., priority 2023, published 2024).

Assays:
[1] = blood compared with saliva
[2] = in vivo

- tacrolimus concentration in the blood [1]: modestly higher than in saliva
- ionization at physiological pH: does not ionize
- passage through salivary glands into the oral cavity [2]: readily passes through salivary glands
Structure (SMILES): C=CC[C@@H]1/C=C(\C)C[C@H](C)C[C@H](OC)[C@H]2O[C@@](O)(C(=O)C(=O)N3CCCC[C@H]3C(=O)O[C@H](/C(C)=C/[C@@H]3CC[C@@H](O)[C@H](OC)C3)[C@H](C)[C@@H](O)CC1=O)[C@H](C)C[C@@H]2OC [tacrolimus]
